In PubChem BioAssay AID256 (DTP/NCI, 2004):
“And” between values parts separate entries of the source, which are not always exact repeats. Equal values may be shown once. Toxic doses and inconclusive results are not listed. How the source made its calls: active means survival T/C of 150% or more; inactive means T/C below 125% in these data. Residues, ends and D or L forms follow the SMILES beside them.

Tested on: CD2F1 mice, L1210 leukemia ip, survival T/C
Test: NCI In Vivo Anticancer Drug Screen. Data for tumor model L1210 Leukemia (intraperitoneal) in CD2F1 (CDF1) mice
Settings: higher = longer survival
Outline: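 Vehicle-treated tumor-bearing mice served as controls (C) for compound-treated mice (T). Reported figure is T divided by C.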

[1] = endpoint: mean survival time, dose: 75.0 mg/kg/injection, schedule: Q01DX001 (ip), vehicle: saline
[2] = endpoint: mean survival time, dose: 25.0 mg/kg/injection, schedule: Q04DX002 (ip), vehicle: saline with Tween-80
[3] = endpoint: mean survival time, dose: 50.0 mg/kg/injection, schedule: Q04DX002 (ip), vehicle: saline with Tween-80
[4] = endpoint: mean survival time, dose: 100.0 mg/kg/injection, schedule: Q04DX003 (ip), vehicle: saline with Tween-80
[5] = endpoint: mean survival time, dose: 200.0 mg/kg/injection, schedule: Q04DX003 (ip), vehicle: saline with Tween-80
[6] = endpoint: mean survival time, dose: 400.0 mg/kg/injection, schedule: Q04DX003 (ip), vehicle: saline with Tween-80
[7] = endpoint: mean survival time, dose: 12.5 mg/kg/injection, schedule: Q04DX003 (ip), vehicle: saline with Tween-80
[8] = endpoint: mean survival time, dose: 25.0 mg/kg/injection, schedule: Q04DX003 (ip), vehicle: saline with Tween-80
[9] = endpoint: mean survival time, dose: 25.0 mg/kg/injection, schedule: Q01DX009 (ip), vehicle: saline with Tween-80
[10] = endpoint: mean survival time, dose: 50.0 mg/kg/injection, schedule: Q01DX009 (ip), vehicle: saline with Tween-80
[11] = endpoint: mean survival time, dose: 100.0 mg/kg/injection, schedule: Q01DX009 (ip), vehicle: saline with Tween-80

Measured: T/C

CC1CN1P(=O)(N1CC1C)N1CC1C (configuration not stated)
inactive: endpoint: mean survival time, dose: 9.5 mg/kg/injection, schedule: Q01DX001 (ip), vehicle: saline 101 % of control | endpoint: mean survival time, dose: 19.0 mg/kg/injection, schedule: Q01DX001 (ip), vehicle: saline 106 % of control | endpoint: mean survival time, dose: 38.0 mg/kg/injection, schedule: Q01DX001 (ip), vehicle: saline 117 % of control

C/C(Cl)=C/C(=O)O.[Ag]
inactive: [1] 93 % of control

O=C(O)C(O)CO.O=C(O)C(O)CO.[NH-]C1CCCCC1[NH-].[Pt+2] (configuration not stated)
inactive: endpoint: mean survival time, dose: 2.5 mg/kg/injection, schedule: Q04DX003 (ip), vehicle: other 124 % of control

CC(C)C(NC(=O)C(CCCN=C(N)N)NC(=O)C(N)CCCCN)C(N)=O (stereo not drawn) (H-Lys-Arg-Val-NH2; configuration not given here)
inactive: endpoint: mean survival time, dose: 12.5 mg/kg/injection, schedule: Q01DX009 (ip), vehicle: water 101 % of control | endpoint: mean survival time, dose: 25.0 mg/kg/injection, schedule: Q01DX009 (ip), vehicle: water 101 % of control | endpoint: mean survival time, dose: 50.0 mg/kg/injection, schedule: Q01DX009 (ip), vehicle: water 94 % of control | endpoint: mean survival time, dose: 100.0 mg/kg/injection, schedule: Q01DX009 (ip), vehicle: water 97 % of control | endpoint: mean survival time, dose: 200.0 mg/kg/injection, schedule: Q01DX009 (ip), vehicle: water 95 % of control

O=C(Cn1[nH]c(=O)ccc1=O)c1ccccc1
inactive: endpoint: mean survival time, dose: 12.5 mg/kg/injection, schedule: Q04DX002 (ip), vehicle: saline with Tween-80 95 % of control | [2] 100 % of control | [3] 91 % of control and 92 % of control | endpoint: mean survival time, dose: 200.0 mg/kg/injection, schedule: Q04DX002 (ip), vehicle: saline with Tween-80 94 % of control

CNc1ccc(CC(=O)O)cc1
inactive: endpoint: mean survival time, dose: 100.0 mg/kg/injection, schedule: Q04DX003 (ip), vehicle: Klucel (hydroxypropylcellulose) (HPC) 92 % of control | endpoint: mean survival time, dose: 200.0 mg/kg/injection, schedule: Q04DX003 (ip), vehicle: Klucel (hydroxypropylcellulose) (HPC) 93 % of control | endpoint: mean survival time, dose: 400.0 mg/kg/injection, schedule: Q04DX003 (ip), vehicle: Klucel (hydroxypropylcellulose) (HPC) 96 % of control

CCCC(C)(CCC)OC(=O)Nc1cccc2ccccc12
inactive: endpoint: mean survival time, dose: 100.0 mg/kg/injection, schedule: Q01DX001 (ip), vehicle: saline with Tween-80 92 % of control | endpoint: mean survival time, dose: 200.0 mg/kg/injection, schedule: Q01DX001 (ip), vehicle: saline with Tween-80 92 % of control | endpoint: mean survival time, dose: 400.0 mg/kg/injection, schedule: Q01DX001 (ip), vehicle: saline with Tween-80 92 % of control

CCOP(=S)(OCC)S/C(C(=O)NC)=C(/C)O
inactive: endpoint: mean survival time, dose: 100.0 mg/kg/injection, schedule: Q04DX003 (sc), vehicle: Klucel + Tween-80 96 % of control | endpoint: mean survival time, dose: 200.0 mg/kg/injection, schedule: Q04DX003 (sc), vehicle: Klucel + Tween-80 100 % of control | endpoint: mean survival time, dose: 400.0 mg/kg/injection, schedule: Q04DX003 (sc), vehicle: Klucel + Tween-80 115 % of control | endpoint: mean survival time, dose: 600.0 mg/kg/injection, schedule: Q04DX003 (sc), vehicle: Klucel + Tween-80 96 % of control

[Cl][Pt+2][Cl].[NH-]C1CC1.[NH2-]
inactive: endpoint: mean survival time, dose: 0.39 mg/kg/injection, schedule: Q04DX003 (ip), vehicle: saline 101 % of control | endpoint: mean survival time, dose: 0.78 mg/kg/injection, schedule: Q04DX003 (ip), vehicle: saline 103 % of control and 104 % of control | endpoint: mean survival time, dose: 1.56 mg/kg/injection, schedule: Q04DX003 (ip), vehicle: saline 121 % of control and 108 % of control | endpoint: mean survival time, dose: 3.12 mg/kg/injection, schedule: Q04DX003 (ip), vehicle: saline with Tween-80 124 % of control

C=CCn1nnnc1N
inactive: endpoint: mean survival time, dose: 100.0 mg/kg/injection, schedule: Q04DX003 (ip), vehicle: saline 101 % of control | endpoint: mean survival time, dose: 200.0 mg/kg/injection, schedule: Q04DX003 (ip), vehicle: saline 103 % of control | endpoint: mean survival time, dose: 400.0 mg/kg/injection, schedule: Q04DX003 (ip), vehicle: saline 101 % of control

COc1ccccc1OCC(C)=O
inactive: [4] 108 % of control | [5] 98 % of control | [6] 97 % of control

CC(=O)OC1CC2C[CH]([Hg][Cl])C1C2 (configuration not stated)
inactive: endpoint: mean survival time, dose: 6.25 mg/kg/injection, schedule: Q04DX003 (ip), vehicle: saline with Tween-80 95 % of control | [7] 111 % of control | [8] 86 % of control

COc1ccc(NC(=O)Oc2ccc(C(C)(C)C)cc2)cc1
inactive: [9] 93 % of control | [2] 104 % of control | [10] 97 % of control | [3] 117 % of control | [11] 97 % of control | endpoint: mean survival time, dose: 100.0 mg/kg/injection, schedule: Q04DX002 (ip), vehicle: saline with Tween-80 87 % of control and 93 % of control

COc1cc(CC(C)N)ccc1O (configuration not stated)
inactive: [4] 105 % of control | [5] 100 % of control | [6] 89 % of control

Clc1ccc(C2SC=Cc3ccccc32)cc1 (configuration not stated)
inactive: endpoint: median survival time, dose: 25.0 mg/kg/injection, schedule: Q01DX009 (ip), vehicle: Klucel (hydroxypropylcellulose) (HPC) 110 % of control | endpoint: median survival time, dose: 50.0 mg/kg/injection, schedule: Q01DX009 (ip), vehicle: Klucel (hydroxypropylcellulose) (HPC) 104 % of control | endpoint: median survival time, dose: 100.0 mg/kg/injection, schedule: Q01DX009 (ip), vehicle: Klucel (hydroxypropylcellulose) (HPC) 109 % of control | endpoint: median survival time, dose: 200.0 mg/kg/injection, schedule: Q01DX009 (ip), vehicle: Klucel (hydroxypropylcellulose) (HPC) 104 % of control

O=C(/C=C/c1ccco1)c1ccc2ccccc2c1
inactive: endpoint: mean survival time, dose: 100.0 mg/kg/injection, schedule: Q01DX001 (ip), vehicle: saline 102 % of control | endpoint: mean survival time, dose: 200.0 mg/kg/injection, schedule: Q01DX001 (ip), vehicle: saline 94 % of control | endpoint: mean survival time, dose: 400.0 mg/kg/injection, schedule: Q01DX001 (ip), vehicle: saline 94 % of control

O=C(NO)Nc1ccccc1
inactive: endpoint: mean survival time, dose: 8.0 mg/kg/injection, schedule: Q03HX024 (ip), vehicle: other 101 % of control | endpoint: mean survival time, dose: 16.0 mg/kg/injection, schedule: Q03HX024 (ip), vehicle: other 101 % of control | endpoint: mean survival time, dose: 32.0 mg/kg/injection, schedule: Q03HX024 (ip), vehicle: other 101 % of control | endpoint: mean survival time, dose: 62.0 mg/kg/injection, schedule: Q03HX024 (ip), vehicle: saline with Tween-80 89 % of control | endpoint: mean survival time, dose: 64.0 mg/kg/injection, schedule: Q03HX024 (ip), vehicle: other 95 % of control | endpoint: mean survival time, dose: 93.0 mg/kg/injection, schedule: Q03HX024 (ip), vehicle: saline with Tween-80 86 % of control | endpoint: mean survival time, dose: 128.0 mg/kg/injection, schedule: Q03HX024 (ip), vehicle: other 92 % of control

Nc1ccccc1Nc1ccccc1
inactive: endpoint: mean survival time, dose: 100.0 mg/kg/injection, schedule: Q01DX001 (ip), vehicle: saline + alcohol 101 % of control | endpoint: mean survival time, dose: 200.0 mg/kg/injection, schedule: Q01DX001 (ip), vehicle: saline + alcohol 97 % of control

CCOC1(C(C)C)CCC(C)/C(=C\c2ccc([N+](=O)[O-])cc2)C1=O (configuration not stated)
inactive: [4] 93 % of control | [5] 93 % of control | [6] 96 % of control

CC(C)NC(=O)CCSCCC(=O)NC(C)C
inactive: endpoint: mean survival time, dose: 25.0 mg/kg/injection, schedule: Q04DX002 (ip), vehicle: other 89 % of control | endpoint: mean survival time, dose: 50.0 mg/kg/injection, schedule: Q04DX002 (ip), vehicle: other 93 % of control | endpoint: mean survival time, dose: 100.0 mg/kg/injection, schedule: Q04DX002 (ip), vehicle: other 97 % of control | endpoint: mean survival time, dose: 200.0 mg/kg/injection, schedule: Q04DX002 (ip), vehicle: other 89 % of control

O=C(Nc1ccc2c3c(ccc(NC(=O)c4ccccc4)c13)C=C2)c1ccccc1
inactive: [11] 95 % of control | endpoint: mean survival time, dose: 400.0 mg/kg/injection, schedule: Q01DX009 (ip), vehicle: saline with Tween-80 89 % of control

Oc1ccc2ccccc2c1
inactive: endpoint: mean survival time, dose: 10.0 mg/kg/injection, schedule: Q04DX003 (ip), vehicle: Klucel (hydroxypropylcellulose) (HPC) 101 % of control | endpoint: mean survival time, dose: 20.0 mg/kg/injection, schedule: Q04DX003 (ip), vehicle: Klucel (hydroxypropylcellulose) (HPC) 96 % of control | endpoint: mean survival time, dose: 40.0 mg/kg/injection, schedule: Q04DX003 (ip), vehicle: Klucel (hydroxypropylcellulose) (HPC) 96 % of control

Cc1ccc([NH-])c(Cl)c1.Cc1ccc([NH-])c(Cl)c1.[Cl][Pt+2][Cl]
inactive: [7] 95 % of control | [8] 97 % of control | endpoint: mean survival time, dose: 50.0 mg/kg/injection, schedule: Q04DX003 (ip), vehicle: saline with Tween-80 97 % of control | [4] 97 % of control | [5] 89 % of control

N#Cc1cccc[n+]1Cc1ccc([N+](=O)[O-])cc1
inactive: [9] 108 % of control | [10] 101 % of control

Cc1ncc(C[P+](c2ccccc2)(c2ccccc2)c2ccccc2)c(C)c1O
inactive: [1] 102 % of control
